Results: patent US12064516B2, “Pharmaceutical formulations and uses thereof” (Aldeyra Therapeutics, Inc., priority 2020, dated 2024)
Like-named read-outs stand apart in the source and are kept apart here.

Experiments:
[1] = human, in vivo, 10 days
Text: This Phase 1 trial was a first-in-human, randomized, double-blind, placebo-controlled trial with a 3:1 randomization of I-1 and placebo. The trial was comprised of single ascending dose (SAD) and multiple ascending dose (MAD) protocols. MAD drug exposure was 10 days of twice-per-day (BID) administration.
A total of 54 healthy volunteers were randomized across two cohorts of varying doses: 41 subjects received I-1 and 13 subjects received placebo.
Thirty-one (31) subjects were randomized to varying doses: 23 subjects received I-1 and 8 subjects received placebo.

[2] = Phase 1 clinical trial, single ascending dose (SAD) pharmacokinetics; format: in vivo, human; conditions: healthy volunteers; for AUC(0-inf) / Cmax / half-life: human, in vivo, po
Text: Pharmacokinetic data are presented below.

[3] = Phase 1 clinical trial, multiple ascending dose (MAD) pharmacokinetics; format: in vivo, human; conditions: for Cmax / half-life / AUC(0-t): human, in vivo; for AUC(0-t): read-out: Mean AUC0-12
Text: PK data are presented below.

[4] = Pharmacokinetic comparison of ADX-102 (reproxalap) and compound I-1 in rats; format: in vivo, Sprague-Dawley rats; conditions: Sprague-Dawley, in vivo, SD Rat
[5] = Solubility of I-1 drug substance; format: physicochemical
Text: Spray-drying was selected for formulation of this compound. By co-precipitating the compound with a polymer in a stable amorphous solid dispersion, spray-drying improved the dissolution rates and enhanced the bioavailability. […] This made I-1 an appropriate candidate for the application of formulation through spray drying dispersion (SDD).

malondialdehyde (MDA) = assay: Plasma malondialdehyde (MDA) in Phase 1 subjects administered I-1 orally; format: in vivo, human; conditions: healthy volunteers
[6] = 100 mg, oral single dose 100 mg
[7] = 200 mg, oral single dose 200 mg
[8] = 400 mg, oral single dose 400 mg
[9] = 700 mg, oral single dose 700 mg
[10] = 1200 mg, oral single dose 1200 mg

SMILES: CC(C)(O)c1nc2ccccc2cc1N [I-1]
- Influenza like illness, N subjects [1]: 0
- AUCinf ([2]; oral single dose 20 mg): 0.05 µg·h/mL
- AUCinf ([2]; oral single dose 50 mg): 0.156 µg·h/mL
- AUCinf ([2]; oral single dose 100 mg): 0.433 µg·h/mL
- AUCinf ([2]; oral single dose 200 mg): 1.14 µg·h/mL
- AUCinf ([2]; oral single dose 400 mg): 2.73 µg·h/mL
- AUCinf ([2]; oral single dose 700 mg): 6.71 µg·h/mL
- AUCinf ([2]; oral single dose 1200 mg): 14.5 µg·h/mL
- AUC(0-inf) ([2]; 20 mg, oral single dose 20 mg): ~0.05 µg·h/mL
- Cmax ([2]; 20 mg, oral single dose 20 mg): ~0.0264 µg/mL
- AUC(0-inf) ([2]; 50 mg, oral single dose 50 mg): ~0.156 µg·h/mL
- Cmax ([2]; 50 mg, oral single dose 50 mg): ~0.0567 µg/mL
- AUC(0-inf) [2, 6]: ~0.433 µg·h/mL
- Cmax [2, 6]: ~0.14 µg/mL
- half-life [2, 6]: 3.52 h
- AUC(0-inf) [2, 7]: ~1.14 µg·h/mL
- Cmax [2, 7]: ~0.459 µg/mL
- half-life [2, 7]: 6.04 h
- AUC(0-inf) [2, 8]: ~2.73 µg·h/mL
- Cmax [2, 8]: ~0.869 µg/mL
- half-life [2, 8]: 6.15 h
- AUC(0-inf) [2, 9]: ~6.71 µg·h/mL
- Cmax [2, 9]: ~2.02 µg/mL
- half-life [2, 9]: 7.33 h
- AUC(0-inf) [2, 10]: ~14.5 µg·h/mL
- Cmax [2, 10]: ~4.22 µg/mL
- half-life [2, 10]: 7.69 h
- accumulation of the drug ([3]; across all cohorts): Little to no accumulation
- relation of Cmax and AUC to dose ([3]; as dose increased, Phase 1 cohorts): linear correlation
- Cmax ([3]; oral, 600 mg, top dose 600 mg BID, read-out: Cmax expressed as molar concentration): ~8.5 µM
- half-life ([3]; oral, multiple day exposures, across cohorts and days, read-out: half-life (t1/2), range of mean values): 3.49 to 6.83 h
- AUC(0-t) ([3]; po, 50 mg, oral 50 mg BID, Day 1): ~0.148 µg·h/mL
- Cmax ([3]; po, 50 mg, oral 50 mg BID, Day 1, read-out: Mean Cmax): ~0.0702 µg/mL
- half-life ([3]; po, 50 mg, oral 50 mg BID, Day 1, read-out: Mean t1/2 (converted)): ~3.49 h
- AUC(0-t) ([3]; po, 50 mg, oral 50 mg BID, Day 10): 0.252 µg·h/mL
- Cmax ([3]; po, 50 mg, oral 50 mg BID, Day 10, read-out: Mean Cmax): 0.0859 µg/mL
- half-life ([3]; po, 50 mg, oral 50 mg BID, Day 10, read-out: Mean t1/2 (converted)): 5.25 h
- AUC(0-t) ([3]; po, 150 mg, oral 150 mg BID, Day 1): ~0.809 µg·h/mL
- Cmax ([3]; po, 150 mg, oral 150 mg BID, Day 1, read-out: Mean Cmax): ~0.343 µg/mL
- half-life ([3]; po, 150 mg, oral 150 mg BID, Day 1, read-out: Mean t1/2 (converted)): ~4.86 h
- AUC(0-t) ([3]; po, 150 mg, oral 150 mg BID, Day 10): 1.17 µg·h/mL
- Cmax ([3]; po, 150 mg, oral 150 mg BID, Day 10, read-out: Mean Cmax): 0.32 µg/mL
- half-life ([3]; po, 150 mg, oral 150 mg BID, Day 10, read-out: Mean t1/2 (converted)): 6.34 h
- AUC(0-t) ([3]; po, 350 mg, oral 350 mg BID, Day 1): ~2.95 µg·h/mL
- Cmax ([3]; po, 350 mg, oral 350 mg BID, Day 1, read-out: Mean Cmax): ~1.19 µg/mL
- half-life ([3]; po, 350 mg, oral 350 mg BID, Day 1, read-out: Mean t1/2 (converted)): ~5.67 h
- AUC(0-t) ([3]; po, 350 mg, oral 350 mg BID, Day 10): 4.34 µg·h/mL
- Cmax ([3]; po, 350 mg, oral 350 mg BID, Day 10, read-out: Mean Cmax): 1.23 µg/mL
- half-life ([3]; po, 350 mg, oral 350 mg BID, Day 10, read-out: Mean t1/2 (converted)): 6.83 h
- AUC(0-t) ([3]; po, 600 mg, oral 600 mg BID, Day 1): ~6.45 µg·h/mL
- Cmax ([3]; po, 600 mg, oral 600 mg BID, Day 1, read-out: Mean Cmax): ~2.23 µg/mL
- half-life ([3]; po, 600 mg, oral 600 mg BID, Day 1, read-out: Mean t1/2 (converted)): ~4.15 h
- AUC(0-t) ([3]; po, 600 mg, oral 600 mg BID, Day 10): 7.22 µg·h/mL
- Cmax ([3]; po, 600 mg, oral 600 mg BID, Day 10, read-out: Mean Cmax): 1.7 µg/mL
- half-life ([3]; po, 600 mg, oral 600 mg BID, Day 10, read-out: Mean t1/2 (converted)): 4.66 h
- Mean AUC0-12 ([3]; oral 50 mg BID, Day 1): 0.148 µg·h/mL
- Mean AUC0-12 ([3]; oral 50 mg BID, Day 10): ~0.252 µg·h/mL
- Mean AUC0-12 ([3]; oral 150 mg BID, Day 1): 0.809 µg·h/mL
- Mean AUC0-12 ([3]; oral 150 mg BID, Day 10): ~1.17 µg·h/mL
- Mean AUC0-12 ([3]; oral 350 mg BID, Day 1): 2.95 µg·h/mL
- Mean AUC0-12 ([3]; oral 350 mg BID, Day 10): ~4.34 µg·h/mL
- Mean AUC0-12 ([3]; oral 600 mg BID, Day 1): 6.45 µg·h/mL
- Mean AUC0-12 ([3]; oral 600 mg BID, Day 10): ~7.22 µg·h/mL
- clearance ([4]; intravenous data using captisol formulation): 3.95 L/h/kg
- half-life ([4]; oral gavage 50 mg/kg, 0.5% MC): 2.96 h
- solubility in aqueous media [5]: poor solubility in aqueous media
- solubility in non-polar solvents [5]: increased solubility in non-polar solvents
- free MDA levels in plasma (malondialdehyde (MDA)): decrease in free MDA levels
